The text below walks through data of US20130079402A1, “Use of at Least One Dialkyl Thiosulfonate or Thiosulfinate for Reducing the Number of Apicomplexa in an Animal” (Pancosma S.A., priority 2010, published 2013).

Molecules are shown by their SMILES. Like-named read-outs stand apart in the source and are kept apart here.

The test system of this test is sporozoites of Eimeria tenella. Nature of the test: Viability of Eimeria tenella sporozoites after 24 hours incubation with test compound (trypan blue exclusion). The test is classed as cell-based. Conditions: for percentage inhibition (effectiveness): concentration of 10 ppm; for inhibition at 100 ppm: Eimeria tenella, read-out: percentage inhibition (inhibitory or destructive effect on the sporozoites). The method, then:
The antiparasitic properties of the following compounds were tested: • a capsicum oleoresin (Capsicum frutescens pigment) containing 6% by weight of a mixture of capsaicin and dihydrocapsaicin; • carvacrol; • cinnamaldehyde; • curcumin; • anethole; • PTS (according to the invention); • PTSO (according to the invention); and • an extract (according to the invention) called “Garlicon 40” containing […] of organosulfur compounds characteristic of garlic/onion, 6.7% by weight of PTS and 34.3% by weight of PTSO.
A first series of samples consisting of an aqueous solution containing 100 ppm of the abovementioned test compounds, and a second series of samples containing only 10 ppm of these compounds, were prepared.
Next, in order to be able to test the effect of the abovementioned compounds on Eimeria, the following was carried out. Freshly sporulated oocysts were obtained from Eimeria tenella and were stored at 4° C. in a 2.5% (weight/volume) potassium dichromate solution until use.
The oocysts were then sterilized with bleach before isolating sporozoites. The walls of the oocysts were mechanically destroyed for 5 to 7 seconds using a ball mill having balls of 0.5 mm.
The product obtained was then incubated for 45 minutes at 41° C. in a PBS buffer solution containing 0.014 mol/l of taurodeoxycholic acid and 0.25% by weight of trypsin in order to release the sporozoites.
The fluids released by the excystation were filtered and the sporozoites collected were washed three times with RPMI-1640 medium with stirring at 2100 revolutions per minute for 10 minutes at 4° C.
Solutions of 10^6 sporozoites per milliliter were then prepared, and were left to incubate with the same volume of sample of test compound for 24 hours.
The viability of the sporozoites was then measured according to the trypan blue exclusion method.
The results can be seen on the appended single figure, in which the numbers located above each column indicate the percentage inhibition by the corresponding compound and the numbers which follow the name of the compound indicate its concentration.
A measurement was also carried out with a control solution (free of test compound) called “Control” on the figure.

[1] abbreviates: concentration of 100 ppm, 24 hours incubation.

For `CCCS[S+]([O-])CCC` (stereo not drawn) [PTS, di(n-propyl) thiosulfinate], the “percentage inhibition (effectiveness)” value (24 hours incubation) was 87%.
On to `CCCSS(=O)(=O)CCC` [PTSO, di(n-propyl) thiosulfonate], for which, under “10 ppm versus 100 ppm”, the “effectiveness at 10 ppm compared with 100 ppm” value is recorded as “higher effectiveness at 10 ppm than at 100 ppm”. In addition, the “percentage inhibition (effectiveness)” value (24 hours incubation) was 61%.
For the compound `Cc1ccc(C(C)C)cc1O` [carvacrol], where the note is “24 h”, the inhibition at 100 ppm was ≥ 74%.
In the case of `O=CC=Cc1ccccc1` [cinnamaldehyde], the inhibition at 100 ppm under setting [1] was ≥ 74%.
With `COc1cc(/C=C/C(=O)CC(=O)/C=C/c2ccc(O)c(OC)c2)ccc1O` [curcumin], the inhibition at 100 ppm under setting [1] is ≥ 74%.
